Test results from ChEMBL document CHEMBL6078668, “Synthesis and biological evaluation of lappaconitine analogues as potential anti-neuroinflammatory agents by side chain modification and scaffold hopping strategy” (Bioorg Med Chem, 2025).

What was measured:
[1] = Cytotoxicity against C57BL/6 mouse BV-2 cells assessed as survival rate at 30 uM incubated for 24 hrs by MTT assay relative to control; format: toxicity, cell-based; settings: read-out: Survival
BV-2 = test: Anti-neuroinflammatory activity against LPS-stimulated C57BL/6 mouse BV-2 cells assessed as inhibition of NO release at 30 uM preincubated with compound for 4 hrs followed by LPS addition and measured after 24 hrs by Griess reagent based assay relative to control; format: functional; settings: C57BL/6, BV-2, time 28 hrs

Compound | viability at 24 h, 30 µM [1] | inhibition at 30 µM (BV-2)
CCN1C[C@]2(OC(=O)c3ccccc3NC(=O)S(=O)(=O)c3cccc4ccccc34)CC[C@H](OC)[C@]34C1[C@@H](C[C@H]23)[C@@]1(O)C[C@H](OC)[C@H]2C[C@@H]4[C@]1(O)[C@H]2OC | 105% | 30.5%
CCc1ccc(C(=O)Nc2ccccc2C(=O)O)cc1 | 101% | 11.9%
CCN1C[C@]2(OC(=O)c3ccccc3NC(=O)S(=O)(=O)c3ccc(F)cc3F)CC[C@H](OC)[C@]34C1[C@@H](C[C@H]23)[C@@]1(O)C[C@H](OC)[C@H]2C[C@@H]4[C@]1(O)[C@H]2OC | 103% | 47.5%
COC(=O)c1ccccc1NC(=O)c1ccc(Cl)s1 | 93.5% | 48.6%
CCCCOC(=O)c1ccccc1NC(=O)c1ccc(Cl)s1 | 110% | 42.8%
CCCCC(CC)C(=O)Nc1ccccc1C(=O)O[C@@]12CC[C@H](OC)[C@]34C([C@@H](C[C@H]13)[C@@]1(O)C[C@H](OC)[C@H]3C[C@@H]4[C@]1(O)[C@H]3OC)N(CC)C2 (stereo partly specified) | 95.9% | 38.2%
CCN1C[C@]2(OC(=O)c3ccccc3NC(=O)S(=O)(=O)CC)CC[C@H](OC)[C@]34C1[C@@H](C[C@H]23)[C@@]1(O)C[C@H](OC)[C@H]2C[C@@H]4[C@]1(O)[C@H]2OC | 106% | 12.5%
CCN1C[C@]2(OC(=O)c3ccccc3NC(=O)C3CCCO3)CC[C@H](OC)[C@]34C1[C@@H](C[C@H]23)[C@@]1(O)C[C@H](OC)[C@H]2C[C@@H]4[C@]1(O)[C@H]2OC (stereo partly specified) | 108% | 14.5%
CCN1C[C@]2(OC(=O)c3ccccc3NC(=O)S(=O)(=O)c3cccc(C)c3)CC[C@H](OC)[C@]34C1[C@@H](C[C@H]23)[C@@]1(O)C[C@H](OC)[C@H]2C[C@@H]4[C@]1(O)[C@H]2OC | 106% | 46.5%
CCN1C[C@]2(OC(=O)c3ccccc3NC(=O)S(=O)(=O)c3cc(F)ccc3F)CC[C@H](OC)[C@]34C1[C@@H](C[C@H]23)[C@@]1(O)C[C@H](OC)[C@H]2C[C@@H]4[C@]1(O)[C@H]2OC | 105% | 53.7%
CCN1C[C@]2(OC(=O)c3ccccc3NC(=O)S(=O)(=O)c3cc(OC)ccc3OC)CC[C@H](OC)[C@]34C1[C@@H](C[C@H]23)[C@@]1(O)C[C@H](OC)[C@H]2C[C@@H]4[C@]1(O)[C@H]2OC | 102% | 26.3%
CCN1C[C@]2(COC(=O)c3ccccc3NS(=O)(=O)c3cccc(F)c3)CC[C@H](OC)[C@]34C1[C@@H](C[C@H]23)[C@@]1(O)C[C@H](OC)[C@H]2C[C@@H]4[C@]1(O)[C@H]2OC | 102% | 20.1%
CCN1C[C@]2(COC)CC[C@H](OC)[C@]34C1[C@@H](C[C@H]23)[C@@]1(O)C[C@H](OC)[C@H]2C[C@@H]4[C@]1(O)[C@H]2OC(=O)c1ccccc1N | 101% | 19.4%
CCN1C[C@]2(OC(=O)c3ccccc3NC(=O)c3cccc(F)c3)CC[C@H](OC)[C@]34C1[C@@H](C[C@H]23)[C@@]1(O)C[C@H](OC)[C@H]2C[C@@H]4[C@]1(O)[C@H]2OC | 107% | 11%
CCN1C[C@]2(COC(=O)c3ccccc3N)CC[C@H](OC)[C@]34C1[C@@H](C[C@H]23)[C@@]1(O)C[C@H](OC)[C@H]2C[C@@H]4[C@]1(O)[C@H]2OC | 91.9% | 22%
CCN1C[C@]2(OC(=O)c3ccccc3NC(=O)c3ccc(OC)cc3)CC[C@H](OC)[C@]34C1[C@@H](C[C@H]23)[C@@]1(O)C[C@H](OC)[C@H]2C[C@@H]4[C@]1(O)[C@H]2OC | 100% | 45.2%
CCN1C[C@]2(OC(=O)c3ccccc3NC(=O)S(C)(=O)=O)CC[C@H](OC)[C@]34C1[C@@H](C[C@H]23)[C@@]1(O)C[C@H](OC)[C@H]2C[C@@H]4[C@]1(O)[C@H]2OC | 102% | 5.1%
CCN1C[C@]2(OC(=O)c3ccccc3NC(=O)S(=O)(=O)c3ccc4c(c3)OCC4)CC[C@H](OC)[C@]34C1[C@@H](C[C@H]23)[C@@]1(O)C[C@H](OC)[C@H]2C[C@@H]4[C@]1(O)[C@H]2OC | 96.3% | 9.9%
CCN1C[C@]2(OC(=O)c3ccccc3NC(=O)S(=O)(=O)c3cccc(C#N)c3)CC[C@H](OC)[C@]34C1[C@@H](C[C@H]23)[C@@]1(O)C[C@H](OC)[C@H]2C[C@@H]4[C@]1(O)[C@H]2OC | 108% | 7.4%

Compound | viability at 24 h, 30 µM [1] | inhibition at 30 µM (BV-2)
CCN1C[C@]2(OC(=O)c3ccccc3NC(=O)S(=O)(=O)c3ccc(OCc4ccccc4)cc3)CC[C@H](OC)[C@]34C1[C@@H](C[C@H]23)[C@@]1(O)C[C@H](OC)[C@H]2C[C@@H]4[C@]1(O)[C@H]2OC | 102% | 21.3%
O=C(Nc1ccccc1C(=O)O)c1ccc(Cl)s1 | 98.7% | 32.4%
CCN1C[C@]2(OC(=O)c3ccccc3NC(=O)S(=O)(=O)c3ccccc3[N+](=O)[O-])CC[C@H](OC)[C@]34C1[C@@H](C[C@H]23)[C@@]1(O)C[C@H](OC)[C@H]2C[C@@H]4[C@]1(O)[C@H]2OC | 104% | 20.5%
CCN1C[C@]2(OC(=O)c3ccccc3NC(=O)C3CC3)CC[C@H](OC)[C@]34C1[C@@H](C[C@H]23)[C@@]1(O)C[C@H](OC)[C@H]2C[C@@H]4[C@]1(O)[C@H]2OC | 104% | 27.7%
CCN1C[C@]2(OC(=O)c3ccccc3NC(=O)c3ccccc3F)CC[C@H](OC)[C@]34C1[C@@H](C[C@H]23)[C@@]1(O)C[C@H](OC)[C@H]2C[C@@H]4[C@]1(O)[C@H]2OC | 105% | 17.3%
CCN1C[C@]2(OC(=O)c3ccccc3NC(=O)CC(C)C)CC[C@H](OC)[C@]34C1[C@@H](C[C@H]23)[C@@]1(O)C[C@H](OC)[C@H]2C[C@@H]4[C@]1(O)[C@H]2OC | 102% | 16.7%
CCN1C[C@]2(OC(=O)c3ccccc3NC(=O)S(=O)(=O)c3ccc(C#N)cc3)CC[C@H](OC)[C@]34C1[C@@H](C[C@H]23)[C@@]1(O)C[C@H](OC)[C@H]2C[C@@H]4[C@]1(O)[C@H]2OC | 103% | 38.8%
CCN1C[C@]2(OC(=O)c3ccccc3NC(=O)CCc3ccccc3)CC[C@H](OC)[C@]34C1[C@@H](C[C@H]23)[C@@]1(O)C[C@H](OC)[C@H]2C[C@@H]4[C@]1(O)[C@H]2OC | 108% | 16.6%
CCN1C[C@]2(OC(=O)c3ccccc3NC(=O)S(=O)(=O)c3ccc(C)cc3F)CC[C@H](OC)[C@]34C1[C@@H](C[C@H]23)[C@@]1(O)C[C@H](OC)[C@H]2C[C@@H]4[C@]1(O)[C@H]2OC | 106% | 26.4%
CCN1C[C@]2(OC(=O)c3ccccc3NC(=O)S(=O)(=O)c3ccc(OC)cc3)CC[C@H](OC)[C@]34C1[C@@H](C[C@H]23)[C@@]1(O)C[C@H](OC)[C@H]2C[C@@H]4[C@]1(O)[C@H]2OC | 92.4% | 10.8%
CCN1C[C@]2(OC(=O)c3ccccc3NC(=O)c3cccc(Br)c3)CC[C@H](OC)[C@]34C1[C@@H](C[C@H]23)[C@@]1(O)C[C@H](OC)[C@H]2C[C@@H]4[C@]1(O)[C@H]2OC | 100% | 44.1%
CCN1C[C@]2(OC(=O)c3ccccc3NC(=O)S(=O)(=O)c3ccc(C)cc3)CC[C@H](OC)[C@]34C1[C@@H](C[C@H]23)[C@@]1(O)C[C@H](OC)[C@H]2C[C@@H]4[C@]1(O)[C@H]2OC | 102% | 31.7%
CCN1C[C@]2(OC(=O)c3ccccc3NC(=O)CN(C)C)CC[C@H](OC)[C@]34C1[C@@H](C[C@H]23)[C@@]1(O)C[C@H](OC)[C@H]2C[C@@H]4[C@]1(O)[C@H]2OC | 94.5% | 20.2%
CCN1C[C@]2(OC(=O)c3ccccc3NC(=O)S(=O)(=O)c3ccccc3OC)CC[C@H](OC)[C@]34C1[C@@H](C[C@H]23)[C@@]1(O)C[C@H](OC)[C@H]2C[C@@H]4[C@]1(O)[C@H]2OC | 103% | 15.2%
CCN1C[C@]2(OC(=O)c3ccccc3NC(=O)S(=O)(=O)c3cc(Cl)ccc3OC)CC[C@H](OC)[C@]34C1[C@@H](C[C@H]23)[C@@]1(O)C[C@H](OC)[C@H]2C[C@@H]4[C@]1(O)[C@H]2OC | 94.9% | 6%
CCN1C[C@]2(OC(=O)c3ccccc3NC(=O)C(C)C)CC[C@H](OC)[C@]34C1[C@@H](C[C@H]23)[C@@]1(O)C[C@H](OC)[C@H]2C[C@@H]4[C@]1(O)[C@H]2OC | 105% | 8.9%
CCN1C[C@]2(OC(=O)c3ccccc3NC(=O)c3ccc(C)cc3C)CC[C@H](OC)[C@]34C1[C@@H](C[C@H]23)[C@@]1(O)C[C@H](OC)[C@H]2C[C@@H]4[C@]1(O)[C@H]2OC | 104% | 16%
CCN1C[C@]2(OC(=O)c3ccccc3NC(=O)S(=O)(=O)c3ccccc3)CC[C@H](OC)[C@]34C1[C@@H](C[C@H]23)[C@@]1(O)C[C@H](OC)[C@H]2C[C@@H]4[C@]1(O)[C@H]2OC | 97.2% | 31.8%
CCN1C[C@]2(COC(=O)c3ccccc3NS(=O)(=O)c3ccc(Br)s3)CC[C@H](OC)[C@]34C1[C@@H](C[C@H]23)[C@@]1(O)C[C@H](OC)[C@H]2C[C@@H]4[C@]1(O)[C@H]2OC | 97.8% | 34.7%
